Strand notation (5' to 3'): a small letter for the sugar, then the base; units joined by * are phosphorothioate-linked, units joined directly phosphodiester-linked; [ ] holds rarer units or linkages, { } end groups; capitals alone tell only the bases. e = 2'-O-(2-methoxyethyl) (MOE); [5mC] = 5-methylcytosine; d = 2'-deoxy (DNA)
Assays:
Format in all cases: cell-based
[1] = tested on: human Factor 11 mRNA; assay: Dose-dependent antisense inhibition of human Factor 11 in HepG2 cells, lipofectin 9.375-150 nM (Example 2); conditions: ~16 h
Description: Cells were plated at a density of 10,000 cells per well and transfected using lipofectin reagent with 9.375 nM, 18.75 nM, 37.5 nM, 75 nM, and 150 nM concentrations of antisense oligonucleotide, as specified in Table 3. After a treatment period of approximately 16 hours, RNA was isolated from the cells and Factor 11 mRNA levels were measured by quantitative real-time PCR. Human Factor 11 primer probe set RTS 2966 (forward sequence: […], incorporated herein as SEQ ID NO: 3; reverse sequence: […], incorporated herein as SEQ ID NO: 4; probe sequence: TTGTCTACTGAAGCACACCCAAACAGGGAX, incorporated herein as SEQ ID NO: 5) was used to measure mRNA levels. Factor 11 mRNA levels were adjusted according to total RNA content, as measured by RIBOGREEN. Results are presented as percent inhibition of Factor 11, relative to untreated control cells.

[2] = tested on: human Factor 11 mRNA; assay: Dose-dependent inhibition of human Factor 11 in HepG2 cells, electroporation 0.7-20 uM (Example 4)
In short: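 HepG2 cells electroporated with antisense gapmers at 0.7, 2.2, 6.7 and 20 μM, treated ~16 h. Factor 11 mRNA quantified by qRT-PCR (primer probe set RTS 2966), normalised to RIBOGREEN total RNA; expressed as percent inhibition versus untreated control cells.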

[3] = tested on: human Factor 11 mRNA; assay: Antisense inhibition of human Factor 11 in HepG2 cells by microwalk gapmers, lipofectin, 75 nM (Example 3)
In short: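 HepG2 cells (10,000/well) were transfected via lipofectin with 75 nM 20-mer MOE gapmers (phosphorothioate, 5-methyl-C) for about 24 h. Factor 11 mRNA was measured by qRT-PCR, normalized to RIBOGREEN total RNA, and given as percent inhibition versus untreated cells.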

[4] = tested on: human Factor 11 mRNA; assay: Antisense inhibition of human Factor 11 in HepG2 cells, lipofectin, 75 nM (Example 1); conditions: 75 nM antisense oligonucleotide, ~24 h, relative to untreated control cells, gapmers targeted to SEQ ID NO: 1
In short: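 HepG2 cells transfected via lipofectin with 75 nM antisense oligonucleotide (5-10-5 MOE gapmers, 20-mers, phosphorothioate, 5-methylcytidines), treated ~24 h. Factor 11 mRNA quantified by real-time PCR, normalised to RIBOGREEN total RNA; percent inhibition versus untreated cells.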

[5] = tested on: human Factor 11 mRNA; assay: Dose-dependent inhibition of human Factor 11 in HepG2 cells, lipofectin 9.375-75 nM (Example 4)
In short: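 HepG2 cells transfected via lipofectin with antisense oligonucleotide at 9.375, 18.75, 37.5 or 75 nM for about 16 h. Factor 11 mRNA quantified by real-time RT-PCR (primer probe set RTS 2966) and normalized to total RNA (RIBOGREEN). Results expressed as percent inhibition versus untreated cells.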

[6] = tested on: human Factor 11 mRNA; assay: Dose-dependent inhibition of human Factor 11 in HepG2 cells, electroporation 123.46-10,000 nM (Example 31); conditions: for Percent inhibition of Factor 11 mRNA at 123.47 nM / Percent inhibition of Factor 11 mRNA at 370.37 nM / IC50: electroporation; for Percent inhibition of Factor 11 mRNA at 123.47 nM / Percent inhibition of Factor 11 mRNA at 370.37 nM / Percent inhibition of Factor 11 mRNA at 1,111.11 nM / Percent inhibition of Factor 11 mRNA at 3,333.33 nM / Percent inhibition of Factor 11 mRNA at 10,000.0 nM: approx. 16 hours, relative to untreated control cells; for Percent inhibition of Factor 11 mRNA at 1,111.11 nM: electroporation, 1,111.11 nM; for Percent inhibition of Factor 11 mRNA at 3,333.33 nM: electroporation, 3,333.33 nM; for Percent inhibition of Factor 11 mRNA at 10,000.0 nM: electroporation, 10,000.0 nM; for IC50: Factor 11 mRNA expression
Description: Cells were plated at a density of 20,000 cells per well and transfected using electroporation with 123.46 nM, 370.37 nM, 1,111.11 nM, 3,333.33 nM and 10,000 nM concentrations of antisense oligonucleotide, as specified in Table 45. After a treatment period of approximately 16 hours, RNA was isolated from the cells and Factor 11 mRNA levels were measured by quantitative real-time PCR. Human Factor 11 primer probe set RTS 2966 was used to measure mRNA levels. Factor 11 mRNA levels were adjusted according to total RNA content, as measured by RIBOGREEN. Results are presented as percent inhibition of Factor 11, relative to untreated control cells.

[7] = tested on: human Factor 11 mRNA; assay: Antisense inhibition of human Factor 11 in HepG2 cells, electroporation, 8,000 nM (Example 30); conditions: electroporation, 8,000 nM antisense oligonucleotide
Description: These microwalk gapmers were tested in vitro. Cultured HepG2 cells at a density of 20,000 cells per well were transfected using electroporation with 8,000 nM antisense oligonucleotide. After a treatment period of approximately 24 hours, RNA was isolated from the cells and Factor 11 mRNA levels were measured by quantitative real-time PCR. Factor 11 mRNA levels were adjusted according to total RNA content, as measured by RIBOGREEN. Results are presented as percent inhibition of Factor 11, relative to untreated control cells.
The chimeric antisense oligonucleotides in Table 44 were designed as 5-10-5 MOE, 5-8-5 and 6-8-6 MOE gapmers. The first two listed gapmers in Table 44 are the original gapmers (ISIS 416850 and ISIS 416858) from which ISIS 445493-445543 were designed via microwalk, and are designated by an asterisk. The 5-10-5 gapmers are 20 nucleotides in length, wherein the central gap segment is comprised of ten 2′-deoxynucleotides and is flanked on both sides (in the 5′ and 3′ directions) by wings comprising five nucleotides each. The 5-8-5 gapmers are 18 nucleotides in length, wherein the central gap segment is comprised of eight 2′-deoxynucleotides and is flanked on both sides (in the 5′ and 3′ directions) by wings comprising five nucleotides each. The 6-8-6 gapmers are 20 nucleotides in length, wherein the central gap segment is comprised of eight 2′-deoxynucleotides and is flanked on both sides (in the 5′ and 3′ directions) by wings comprising six nucleotides each. For each of the motifs (5-10-5, 5-8-5 and 6-8-6), each nucleotide in the 5′ wing segment and each nucleotide in the 3′ wing segment has a 2′-MOE modification. The internucleoside linkages throughout each gapmer are phosphorothioate (P=S) linkages. All cytidine residues throughout each gapmer are 5-methylcytidines. “Human Target start site” indicates the 5′-most nucleotide to which the gapmer is targeted in the human sequence. “Human Target stop site” indicates the 3′-most nucleotide to which the gapmer is targeted in the human sequence. Each gapmer listed in Table 44 is targeted to SEQ ID NO: 1 (GENBANK Accession No. NM_000128.3). Each gapmer is Table 44 is also fully cross-reactive with the rhesus monkey Factor 11 gene sequence, designated herein as SEQ ID NO: 274 (exons 1-15 GENBANK Accession No. NW_001118167.1). ‘Rhesus monkey start site’ indicates the 5′-most nucleotide to which the gapmer is targeted in the rhesus monkey sequence. ‘Rhesus monkey stop site’ indicates the 3′-most nucleotide to which the gapmer is targeted to the rhesus monkey sequence.

[8] = HepG2, lipofectin, ~24 h, gapmers targeted to nucleobases 656 to 704 of SEQ ID NO: 1
[9] = HepG2 cells, lipofectin, gapmers targeted to nucleobases 1275 to 1318 of SEQ ID NO: 1

Row | Substance | percent inhibition of Factor 11 at 9.375 nM [1] | percent inhibition of Factor 11 at 18.75 nM [1] | percent inhibition of Factor 11 at 37.5 nM [1] | percent inhibition of Factor 11 at 75 nM [1] | percent inhibition of Factor 11 at 150 nM [1] | IC50 [1] | % inhibition [3, 8] | % inhibition [4] | Percent inhibition of Factor 11 mRNA at 123.47 nM [6] | Percent inhibition of Factor 11 mRNA at 370.37 nM [6] | Percent inhibition of Factor 11 mRNA at 1,111.11 nM [6] | Percent inhibition of Factor 11 mRNA at 3,333.33 nM [6] | Percent inhibition of Factor 11 mRNA at 10,000.0 nM [6] | IC50 [6] | Percent inhibition of human Factor 11 mRNA levels [7] | also measured
1 | 412203 (antisense eA*eA*eT*eG*eT*d[5mC]*dT*dT*dT*dG*dT*dT*dG*d[5mC]*dA*eA*eG*e[5mC]*eG*e[5mC]) [compound 412203] | 29% | 15% | 61% | 77% | 82% | 33 nM | 97% | 91% | – | – | – | – | – | – | – | IC50 [2]: 2700 nM; percent inhibition of Factor 11 at 0.7 μM ([2]; 0.7 μM, relative to untreated control cells): 11%; percent inhibition of Factor 11 at 2.2 μM ([2]; 2.2 μM, relative to untreated control cells): 60%; percent inhibition of Factor 11 at 6.7 μM ([2]; 6.7 μM, relative to untreated control cells): 70%; percent inhibition of Factor 11 at 20 μM ([2]; 20 μM, relative to untreated control cells): 91%; IC50 [5]: 24 nM; percent inhibition of Factor 11 at 9.375 nM ([5]; 9.375 nM, relative to untreated control cells): 33%; percent inhibition of Factor 11 at 18.75 nM ([5]; 18.75 nM, relative to untreated control cells): 40%; percent inhibition of Factor 11 at 37.5 nM ([5]; 37.5 nM, relative to untreated control cells): 62%; percent inhibition of Factor 11 at 75 nM ([5]; 75 nM, relative to untreated control cells): 74%
2 | 412212 (antisense e[5mC]*e[5mC]*eG*eG*eG*dA*dT*dG*dA*dT*dG*dA*dG*dT*dG*e[5mC]*eA*eG*eA*eT) [compound 412212] | 28% | 45% | 59% | 73% | 88% | 25 nM | – | 88% | – | – | – | – | – | – | – | % inhibition ([3]; HepG2 cells, lipofectin, gapmers targeted to nucleobases 1018 to 1042 of SEQ ID NO: 1): 89%
3 | 413468 (antisense eG*eT*e[5mC]*eT*eA*dG*dG*dT*d[5mC]*d[5mC]*dA*d[5mC]*dA*dT*dA*eA*eA*eT*eG*eT) [compound 413468] | 14% | 34% | 56% | 78% | 75% | 35 nM | 83% | 84% | – | – | – | – | – | – | – | –
4 | 413469 (antisense eT*eG*e[5mC]*e[5mC]*e[5mC]*dT*dT*d[5mC]*dA*dT*dG*dT*d[5mC]*dT*dA*eG*eG*eT*e[5mC]*e[5mC]) [compound 413469] | 24% | 33% | 53% | 70% | 84% | 33 nM | 86% | 84% | – | – | – | – | – | – | – | –
5 | 416849 (antisense eG*e[5mC]*eA*e[5mC]*eA*dG*dT*dT*dT*d[5mC]*dT*dG*dG*d[5mC]*dA*eG*eG*e[5mC]*e[5mC]*eT) [compound 416849] | – | – | – | – | – | – | – | – | 5% | 5% | 26% | 57% | 68% | 2700 nM | 88% | % inhibition [3, 9]: 88%
6 | 416857 (antisense e[5mC]*eG*eG*e[5mC]*eA*dT*dT*dG*dG*dT*dG*d[5mC]*dA*d[5mC]*dA*eG*eT*eT*eT*e[5mC]) [compound 416857] | – | – | – | – | – | – | – | – | 2% | 20% | 35% | 62% | 72% | 2300 nM | 91% | % inhibition [3, 9]: 92%
7 | 445503 (antisense eG*e[5mC]*eA*eT*eT*eG*dG*dT*dG*d[5mC]*dA*d[5mC]*dA*dG*eT*eT*eT*e[5mC]*eT*eG) [compound 445503] | – | – | – | – | – | – | – | – | 0% | 0% | 22% | 36% | 60% | 5900 nM | 89% | –
8 | 445532 (antisense e[5mC]*eG*eG*e[5mC]*eA*dT*dT*dG*dG*dT*dG*d[5mC]*dA*e[5mC]*eA*eG*eT*eT) [compound 445532] | – | – | – | – | – | – | – | – | 5% | 12% | 39% | 60% | 70% | 2000 nM | 89% | –

Source: patent publication US20230263822A1, “MODULATION OF FACTOR 11 EXPRESSION” (Ionis Pharmaceuticals, Inc., priority 2008, published 2023)
